According to US12398154B2, “Azaquinazoline pan-KRas inhibitors” (Mirati Therapeutics, Inc., priority 2020, dated 2025):
pIC50: −log10 of the molar value.

How the values were obtained:
[1] = biological target: KRas G12V (Homo sapiens, UniProt P01116, G12V); assay: biochemical;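 note: KRas binding measured by TR-FRET displacement at room temperature, IC50 fitted from percent of control values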
Protocol: (§1) The ability of a compound to bind to KRas was measured using a TR-FRET displacement assay. […] After a 60-minute incubation at room temperature, the reaction was measured using a BMG LABTECH CLARIO star Plus via TR-FRET. […] The POC values were fit to a 4-parameter IC50 equation and the IC50 value reported.

[2] = system: pERK in H358 cells; assay: Inhibition of KRas phosphorylation of ERK (Cisbio HTRF pERK assay); conditions: Homo sapiens, NCI-H358, read-out: Inhibition (HTRF IC50) of KRas-mediated Phosphorylation of ERK, H358
[3] = system: pERK in H727 cells; assay: as above; conditions: Homo sapiens, NCI-H727, read-out: Inhibition (HTRF IC50) of KRas-mediated Phosphorylation of ERK, H727
[4] = system: pERK in PSN1 cells; assay: as above; conditions: Homo sapiens, PSN1, 3 h, read-out: Inhibition (HTRF IC50) of KRas-mediated Phosphorylation of ERK, PSN1
[5] = biological target: KRas G12D (Homo sapiens, UniProt P01116, G12D); assay: biochemical;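 note: TR-FRET displacement binding assay on KRas, read after a one-hour incubation at room temperature, IC50 fitted from percent-of-control values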
Sequence of KRas G12D (P01116 1-169 isoform P01116-2 G12D): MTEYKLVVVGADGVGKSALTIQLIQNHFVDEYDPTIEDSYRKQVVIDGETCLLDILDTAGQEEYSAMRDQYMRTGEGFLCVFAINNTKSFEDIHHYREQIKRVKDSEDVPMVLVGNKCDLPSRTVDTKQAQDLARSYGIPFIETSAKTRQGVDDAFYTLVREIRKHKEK
Protocol: as §1

[6] = biological target: KRas G12C (Homo sapiens, UniProt P01116, G12C); assay: biochemical;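 note: binding to KRas assessed by TR-FRET displacement after one hour incubation at room temperature, potency fitted from percent-of-control values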
Sequence of KRas G12C (P01116 1-169 isoform P01116-2 G12C): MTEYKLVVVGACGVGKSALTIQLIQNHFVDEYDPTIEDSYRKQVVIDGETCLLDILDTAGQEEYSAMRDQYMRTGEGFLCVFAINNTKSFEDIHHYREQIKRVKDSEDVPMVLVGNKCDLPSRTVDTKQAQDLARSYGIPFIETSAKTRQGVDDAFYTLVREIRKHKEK
Protocol: as §1

[7] = system: pERK in ASPC1 cells; assay: Inhibition of KRas phosphorylation of ERK (Cisbio HTRF pERK assay); conditions: Homo sapiens, ASPC1, read-out: Inhibition (HTRF IC50) of KRas-mediated Phosphorylation of ERK, AsPC-1
[8] = system: pERK in A549 cells; assay: as above; conditions: Homo sapiens, A549, read-out: Inhibition (HTRF IC50) of KRas-mediated Phosphorylation of ERK, A549
[9] = biological target: KRas G12R (Homo sapiens, UniProt P01116, G12R); assay: biochemical;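 note: TR-FRET displacement assay of compound binding to KRas, read after one hour at room temperature, potency from a four-parameter fit of percent-of-control values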
Sequence of KRas G12R (P01116 1-169 isoform P01116-2 G12R): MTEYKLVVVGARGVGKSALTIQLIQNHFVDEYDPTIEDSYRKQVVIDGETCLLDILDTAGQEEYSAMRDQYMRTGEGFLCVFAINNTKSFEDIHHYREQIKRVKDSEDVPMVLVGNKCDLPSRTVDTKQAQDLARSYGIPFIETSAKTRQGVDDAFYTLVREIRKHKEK
Protocol: as §1

[10] = system: pERK in MKN1 cells; assay: Inhibition of KRas phosphorylation of ERK (Cisbio HTRF pERK assay); conditions: Homo sapiens, MKN-1, 3 h, read-out: Inhibition (HTRF IC50) of KRas-mediated Phosphorylation of ERK, MKN1
[11] = system: pERK in HCT116 cells; assay: as above; conditions: Homo sapiens, HCT-116, read-out: Inhibition (HTRF IC50) of KRas-mediated Phosphorylation of ERK, HCT116
Protocol: To harvest cells from flask using 0.05% Trypsin/EDTA solution. Add 10 mL of media to stop trypsinizing. Pipette the cells into a conical bottom 50 mL centrifuge tube and centrifuge 5 min×1000 rpm. • 2. Re-suspend the cell pellet in media, take a cell count, and then adjust the cell density using fresh media. • 3. Seed 6,000 cells into cell culture plate with 50 μL media. […] Incubate cell plate overnight in a 37° C., 5% CO2 incubator. • Compound titrations • 1. Use Tecan to complete the compound addition. Compounds start from 10 uM top, 3-fold dilution, and 10 doses. The final DMSO concentration is 0.8%. Dispensed 0.2 uM Trametinib as Min control. • 2. Incubate cell plate for 3 hrs in the incubator. • Detection with cisbio pERK HTRF kit • 1. […] At the end of the compound treatment, flick-off the media. • 3. Add 35 μL of lysis buffer per well using a Multidrop Combi. Then place on a plate agitator shaking at 300 rpm at 4° C. for 40 mins. • 4. Make up the HTRF antibody buffer. For each assay plate, mix 50 μL of d2-conjugate antibody with 950 μL of detection buffer. Similarly, mix 50 μL of Cryptate antibody with 950 μL of detection buffer. Then mix the two diluted antibodies together. • 5. Dispense 3.4 μL the antibody buffer to wells of an empty assay plate. Seal the plate and centrifuge plate 30 sec×1000 rpm. • 6. At the end of the 4° C. lysis, centrifuge the lysate plates 3 mins×1500 rpm. • 7. Use the Bravo to transfer 13.6 μL of lysate from cell culture plate to assay plate.
Then incubate assay plate for 2 hrs at room temperature. […] At the end of incubation, read plate on the Envision after centrifuging plate 30 sec× • 1000 rpm.

[12] = system: pERK in H460 cells; assay: as above; conditions: Homo sapiens, NCI-H460, read-out: Inhibition (HTRF IC50) of KRas-mediated Phosphorylation of ERK, H460
[13] = biological target: KRas WT (Homo sapiens, UniProt P01116); assay: biochemical;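 note: binding to KRas read as TR-FRET displacement after a one-hour room-temperature incubation, IC50 derived from percent-of-control values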
Sequence of KRas WT (P01116 1-169 isoform P01116-2): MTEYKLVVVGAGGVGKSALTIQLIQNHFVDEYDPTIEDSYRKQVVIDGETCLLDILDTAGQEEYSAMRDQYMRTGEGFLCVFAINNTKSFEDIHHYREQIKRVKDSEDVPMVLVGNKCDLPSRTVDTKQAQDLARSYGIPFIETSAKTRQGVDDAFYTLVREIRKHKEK
Protocol: as §1

[14] = biological target: KRas G12S (Homo sapiens, UniProt P01116, G12S); assay: biochemical;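 note: TR-FRET displacement binding to KRas, read after one hour incubation at room temperature, IC50 from four-parameter fit of percent of control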
Sequence of KRas G12S (P01116 1-169 isoform P01116-2 G12S): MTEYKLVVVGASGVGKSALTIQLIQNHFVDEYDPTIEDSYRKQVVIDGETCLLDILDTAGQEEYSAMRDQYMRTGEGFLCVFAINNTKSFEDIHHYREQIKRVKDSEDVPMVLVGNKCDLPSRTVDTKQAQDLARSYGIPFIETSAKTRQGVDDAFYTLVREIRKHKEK
Protocol: as §1

[15] = biological target: KRas G12A (Homo sapiens, UniProt P01116, G12A); assay: biochemical;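 note: binding to KRas measured by TR-FRET displacement after one hour at room temperature, IC50 from a four-parameter fit of percent-of-control values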
Sequence of KRas G12A (P01116 1-169 isoform P01116-2 G12A): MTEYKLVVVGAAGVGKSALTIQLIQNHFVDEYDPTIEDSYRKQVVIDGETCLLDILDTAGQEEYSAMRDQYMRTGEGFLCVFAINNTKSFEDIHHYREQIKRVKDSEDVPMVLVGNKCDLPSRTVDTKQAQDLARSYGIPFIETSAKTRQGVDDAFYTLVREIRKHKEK
Protocol: as §1

Sequence of KRas G12V (P01116 1-169 isoform P01116-2 G12V): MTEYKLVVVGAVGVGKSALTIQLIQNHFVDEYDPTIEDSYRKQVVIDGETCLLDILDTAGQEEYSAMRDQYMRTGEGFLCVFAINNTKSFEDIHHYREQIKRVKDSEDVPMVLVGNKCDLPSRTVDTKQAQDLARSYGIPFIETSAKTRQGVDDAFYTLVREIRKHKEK

SMILES	pIC50 [1]	pIC50 [2]	pIC50 [3]	pIC50 [4]	pIC50 [5]	pIC50 [6]	pIC50 [7]	pIC50 [8]	pIC50 [9]	pIC50 [10]	pIC50 [11]	pIC50 [12]	pIC50 [13]	pIC50 [14]	pIC50 [15]
CCc1c(F)ccc2cc(O)cc(-c3ncc4c(N5CCCC6(CNS(=O)(=O)N6)C5)nc(OC[C@@]56CCCN5C[C@H](F)C6)nc4c3F)c12 (stereo partly drawn) [Example 330, 7-(7-(8-ethyl-7-fluoro-3-hydroxynaphthalen-1-yl)-8-fluoro-2-(((2R,7aS)-2-fluorohexahydro-1H-pyrrolizin-7a-yl)methoxy)pyrido[4,3-d]pyrimidin-4-yl)-2-thia-1,3,7-triazaspiro[4.5]decane 2,2-dioxide]	≥ 8.70	7.96	7.21	6.52	≥ 8.70	≥ 8.70	7.54	7.08	≥ 8.70	8.10	7.24	7.28	≥ 8.70	–	–
CCc1c(F)ccc2cc(O)cc(-c3ncc4c(N5CCC[C@@](C)(O)C5)nc(OC[C@]56CCCN5[C@H](COC(=O)N(C)C)CC6)nc4c3F)c12 [Example 313, ((3S,7aR)-7a-(((7-(8-ethyl-7-fluoro-3-hydroxynaphthalen-1-yl)-8-fluoro-4-((R)-3-hydroxy-3-methylpiperidin-1-yl)pyrido[4,3-d]pyrimidin-2-yl)oxy)methyl)hexahydro-1H-pyrrolizin-3-yl)methyl dimethylcarbamate]	≥ 8.70	8.40	7.55	5.67	≥ 8.70	≥ 8.70	7.89	7.42	≥ 8.70	8.15	7.38	7.42	≥ 8.70	≥ 8.70	≥ 8.70
CCc1c(F)ccc2cc(O)cc(-c3ncc4c(N5CCC[C@@](C)(O)C5)nc(OCC5(CN6CCN(C)CC6)CC5)nc4c3F)c12 [Example 336, (R)-1-(7-(8-ethyl-7-fluoro-3-hydroxynaphthalen-1-yl)-8-fluoro-2-((1-((4-methylpiperazin-1-yl)methyl)cyclopropyl)methoxy)pyrido[4,3-d]pyrimidin-4-yl)-3-methylpiperidin-3-ol]	≥ 8.70	7.23	6.89	5.39	≥ 8.70	–	7.49	7.12	≥ 8.70	8.40	6.68	6.79	–	–	–
Oc1cc(-c2ncc3c(N4CC5CC(O)C(C5)C4)nc(OC[C@@]45CCCN4C[C@H](F)C5)nc3c2F)c2c(Cl)c(F)ccc2c1 (stereo partly drawn) [Example 421, 3-(7-(8-chloro-7-fluoro-3-hydroxynaphthalen-1-yl)-8-fluoro-2-(((2R,7aS)-2-fluorotetrahydro-1H-pyrrolizin-7a(5H)-yl)methoxy)pyrido[4,3-d]pyrimidin-4-yl)-3-azabicyclo[3,2,1]octan-6-ol]	≥ 8.70	7.80	7.59	5.82	8.52	–	7.21	7.41	≥ 8.70	8.40	7.15	7.14	–	–	–
C[C@@]1(O)CCCN(c2nc(OC[C@@]34CCCN3C[C@H](F)C4)nc3c(F)c(-c4cc(O)cc5ccc(F)c(Br)c45)ncc23)C1 [Example 399, (R)-1-(7-(8-bromo-7-fluoro-3-hydroxynaphthalen-1-yl)-8-fluoro-2-(((2R,7aS)-2-fluorohexahydro-1H-pyrrolizin-7a-yl)methoxy)pyrido[4,3-d]pyrimidin-4-yl)-3-methylpiperidin-3-ol]	≥ 8.70	8.40	7.80	6.45	≥ 8.70	–	8.52	7.85	≥ 8.70	9.00	7.64	7.74	–	–	–
CCc1c(F)ccc2cc(O)cc(-c3ncc4c(N5CCOCC(C)(CO)C5)nc(OC[C@@]56CCCN5C[C@H](F)C6)nc4c3F)c12 (stereo partly drawn) [Example 496, 5-ethyl-6-fluoro-4-(8-fluoro-2-(((2R,7aS)-2-fluorotetrahydro-1H-pyrrolizin-7a(5H)-yl)methoxy)-4-(6-(hydroxymethyl)-6-methyl-1,4-oxazepan-4-yl)pyrido[4,3-d]pyrimidin-7-yl)naphthalen-2-ol]	7.96	6.93	6.39	5.08	7.62	–	7.02	6.58	8.22	7.17	6.28	6.61	–	–	–
CCc1c(F)ccc2cc(O)cc(-c3ncc4c(N5CCOC[C@@]6(C5)CC6(F)F)nc(OC[C@@]56CCCN5C[C@H](F)C6)nc4c3F)c12 [Example 498, 4-(4-((S)-1,1-difluoro-5-oxa-8-azaspiro[2.6]nonan-8-yl)-8-fluoro-2-(((2R,7aS)-2-fluorohexahydro-1H-pyrrolizin-7a-yl)methoxy)pyrido[4,3-d]pyrimidin-7-yl)-5-ethyl-6-fluoronaphthalen-2-ol]	8.52	7.68	7.19	≤ 5.00	8.30	–	7.33	7.32	8.52	7.89	6.77	7.18	–	–	–
CCc1c(F)ccc2cc(O)cc(-c3ncc4c(N5CCC[C@@](C)(O)C5)nc(OC[C@@]56CCCN5[C@H](COC(=O)N5CCOCC5)CC6)nc4c3F)c12 [Example 511, ((3S,7aS)-7a-(((7-(8-ethyl-7-fluoro-3-hydroxynaphthalen-1-yl)-8-fluoro-4-((R)-3-hydroxy-3-methylpiperidin-1-yl)pyrido[4,3-d]pyrimidin-2-yl)oxy)methyl)hexahydro-1H-pyrrolizin-3-yl)methyl morpholine-4-carboxylate]	≥ 8.70	8.22	7.60	5.98	≥ 8.70	–	8.10	7.64	≥ 8.70	8.70	7.35	7.57	–	–	–
CCc1c(F)ccc2cc(O)cc(-c3ncc4c(N5CCCn6nc(C(=O)NC)cc6C5)nc(OC[C@@]56CCCN5C[C@H](F)C6)nc4c3F)c12 [Example 339, 5-(7-(8-ethyl-7-fluoro-3-hydroxynaphthalen-1-yl)-8-fluoro-2-(((2R,7aS)-2-fluorotetrahydro-1H-pyrrolizin-7a(5H)-yl)methoxy)pyrido[4,3-d]pyrimidin-4-yl)-N-methyl-5,6,7,8-tetrahydro-4H-pyrazolo[1,5-a][1,4]diazepine-2-carboxamide]	≥ 8.70	7.02	7.14	≤ 5.00	≥ 8.70	–	7.32	6.25	≥ 8.70	7.92	6.08	6.00	–	–	–
CCc1c(F)ccc2cc(O)cc(-c3ncc4c(N5C[C@@H](CO)C[C@](C)(O)C5)nc(OC[C@@]56CCCN5C[C@H](F)C6)nc4c3F)c12 (mixture of isomers) [Example 327, (3RS,5RS)-1-(7-(8-ethyl-7-fluoro-3-hydroxynaphthalen-1-yl)-8-fluoro-2-(((2R,7aS)-2-fluorotetrahydro-1H-pyrrolizin-7a(5H)-yl)methoxy)pyrido[4,3-d]pyrimidin-4-yl)-5-(hydroxymethyl)-3-methylpiperidin-3-ol]	≥ 8.70	8.00	7.01	5.17	≥ 8.70	–	7.64	6.62	≥ 8.70	7.85	6.42	6.69	–	–	–
